“And” between values parts separate entries of the source, which are not always exact repeats. Equal entries are not always repeated.
Legend:
[1] = Bioavailability study after liquid dose of radiolabeled DTPA (14C) in male Sprague-Dawley rats (SRI Study B230-06); assay type: in vivo
Method: The objective of this study was to determine the oral bioavailability of Ca-DTPA using radioactive ^14C-DTPA tracer for detection in male Sprague Dawley rats after oral administration in several different formulations. After oral gavage of Ca-DTPA or DTPA (free acid) in sterile water, the oral bioavailability of DTPA is estimated to be about 7% in these two treatment groups. […] In Group 7, which also was administered DTPA in 20% Labrasol (+Quinidine pretreatment), the mean bioavailability was 10%, but this group had greater interindividual variability than seen in the other treatment groups.

iron-loaded dogs = assay: Excretion of iron after repeat dose administration of DTPA in iron-loaded dogs; assay type: in vivo, beagle dogs; set-up: Excretion of Fe in urine / Excretion of Fe in urine, Total: unit not given here; conditions: for Excretion of Fe in urine, Total: sum 4 hr to 120 hr; for excretion of Fe after oral DTPA as % of the amount excreted by intravenously treated animals: oral vs IV
Method: The objective of this study was to evaluate the efficacy of an oral formulation of DTPA to enhance the excretion of iron in urine from iron-loaded dogs. Iron-loaded dogs were used in the study as a surrogate model for contamination by transuranic elements.
Two treatment groups, consisting of one male and one female dog, were compared. Ca-DTPA in sterile saline was administered by the intravenous route, 10 mg/kg, on Day 1, followed by 4 days of treatment with Zn-DTPA (10 mg/kg daily). The oral treatment group was also administered 10 mg/kg in 20% Labrasol® in capsules, with Ca-DTPA on Day 1 and Zn-DTPA on Days 2-5. Blood was collected from each dog at the following time points: predose and 1, 4, 8, and 24 hr after dose administration on Day 1, and at 24 hr postdose on Days 2-5. Dogs were maintained in metabolism cages for the study, and urine was collected at 4, 8, and 24 hr after the Day 1 dose, and every 24 hr after the Day 2-5 doses. Collected samples were analyzed for iron, calcium, and zinc by Perkin-Elmer ICP (Inductively Coupled Plasma) unit.

[2] = Oral bioavailability of two additional Ca-DTPA formulations in beagle dogs (SRI Study B221B-06)
Method: Oral bioavailability is assessed using the Beagle dog, or equivalent model, wherein levels of plasma Ca/Zn-DTPA from an orally administered composition are compared to levels obtained after i.v. administration using the calculation: BA=AUCPO×Doseiv/AUCiv×DosePO; where BA=bioavailability and AUC=area under the plasma concentration-time curve.
Two additional oral formulations of Ca-DTPA were studied in male and female beagle dogs to determine the effect of modifications in the formulation on oral bioavailability (SRI Study B221B-06). The dose administered was 10 mg/kg plus ˜100 μCi/kg. One male and one female dog received the drug in a bead formulation that consisted of 42.22% DTPA, 25.33% Labrasol®, 8.44% CAB-O-SIL EH5, 24.0% HPMC K110M, and 17.17% water; the other male and female dog were administered DTPA in a liquid formulation that consisted of 20% Labrasol®. In both dose groups, the formulated drug was added to size “0” capsules, then sealed and stored until administration.

[3] = test system: harvested rat small intestinal segments: Duodenum; assay: Ussing chamber mucosal to serosal transport across rat duodenum; assay type: in vitro ADME; conditions: 5 mg/ml of DTPA in HEPES Buffer
Method: (§1) The primary objective of these in vitro studies was to determine a formulation containing permeation enhancers/other additives that achieved maximum transport of DTPA from mucosal to serosal side of the intestine. The mucosal to serosal absorption of DTPA (Zinc/Calcium) was measured in vitro across harvested rat intestinal segments and colon, in an EasyMount Ussing System (Physiological Instruments Inc., CA, Item #EM-CSYS-8). The Ussing chamber consists of two diffusion chambers, a heating block for temperature control, needle valves for gas flow adjustment and gas lift stirring, and Ag/AgCl voltage and current electrodes for measuring transepithelial voltage and for passing current. Representative sections of the harvested rat small intestinal segments (jejunum, duodenum, and ileum) and the rat colon were mounted on sliders placed between the chambers, and DTPA (Zinc/Calcium) transport across the sections was monitored. Aliquots of sample solution were removed from the ‘serosal’ side at 30 min intervals and analyzed by high performance liquid chromatography (HPLC). The change in mucosal to serosal transport of DTPA (Zinc/Calcium) in the presence of different permeation enhancers was determined.
(§2) Zn-DTPA and Ca-DTPA was dissolved in HEPES buffer (VWR, Brisbane, Calif.), with or without additives, at the predetermined drug concentrations. […]

[4] = test system: harvested rat small intestinal segments: Jejunum; assay: Ussing chamber mucosal to serosal transport across rat jejunum; assay type: in vitro ADME
Method: as §1
Zn-DTPA and Ca-DTPA was dissolved in HEPES buffer (VWR, Brisbane, Calif.), with or without additives, at the predetermined drug concentrations. HEPES buffer was used as the base mucosal and serosal fluid. Before initiating the experiment, 5 ml of HEPES buffer was added to each of the two chambers (mucosal and serosal) and was allowed to equilibrate for 20 min. Next, the mucosal buffer was replaced by the appropriate formulation to be tested and the experiment was initiated. Aliquots (0.5 ml) were collected from the serosal side and were replaced with an equivalent amount of fresh HEPES buffer (maintained at physiological temperature). The aliquotted samples from the serosal side were analyzed by HPLC.
Owing to the expected variation in the in vitro conditions and harvested rat intestinal segments, five replicates were used per experimental condition. In order to compare data obtained from the different experiments, the apparent permeability coefficients (Papp) were calculated according to:
[formula] Where, dQ/dt is the linear appearance rate of mass in receiver compartment, C0 is the initial solute concentration in donor compartment, and A is the surface area. The higher the Papp value, the better the permeation property. The similarity of the Papp values indicates similar behavior for the two DTPA compounds.
We then evaluated transport of Zn-DTPA and Ca-DTPA through jejunum segments with and without Labrasol.
We then tested the transport of 100 mg/ml DTPA in HEPES buffer with and without added enhancers across jejunum segments; results are in Table 3.

[5] = test system: harvested rat small intestinal segments: Ileum; assay: Ussing chamber mucosal to serosal transport across rat ileum; assay type: in vitro ADME; conditions: 5 mg/ml of DTPA in HEPES Buffer
Method: as §1, §2

rat colon = assay: Ussing chamber mucosal to serosal transport across rat colon; assay type: in vitro ADME; conditions: 5 mg/ml of DTPA in HEPES Buffer
Method: as §1, §2

O=C(O)CN(CCN(CC(=O)O)CC(=O)O)CCN(CC(=O)O)CC(=O)O [DTPA]
% Bioavailability Mean ± SD ([1]; Group 4 Oral, 20% Labrasol): ~12% | % Bioavailability Mean ± SD ([1]; Group 7 Oral, 0.15 mM Quinidine pretreatment then 20% Labrasol): 10% | % Bioavailability ([1]; Group 7 Oral, 0.15 mM Quinidine pretreatment then 20% Labrasol, individual rats): 19% | Excretion of Fe in urine (iron-loaded dogs; Dog 1M, IV 10 mg/kg daily, Time 48 hr): 0.6044 | Excretion of Fe in urine (iron-loaded dogs; Dog 1M, IV 10 mg/kg daily, Time 72 hr): 0.1732 | Excretion of Fe in urine (iron-loaded dogs; Dog 1M, IV 10 mg/kg daily, Time 96 hr): 0.1762 | Excretion of Fe in urine (iron-loaded dogs; Dog 1M, IV 10 mg/kg daily, Time 120 hr): 0.2324 | Excretion of Fe in urine, Total (iron-loaded dogs; Dog 1M, IV 10 mg/kg daily): 1.444 | Excretion of Fe in urine (iron-loaded dogs; Dog 1M, IV 10 mg/kg, Time 4 hr): 0.0970 | Excretion of Fe in urine (iron-loaded dogs; Dog 1M, IV 10 mg/kg, Time 8 hr): 0.0471 | Excretion of Fe in urine (iron-loaded dogs; Dog 1M, IV 10 mg/kg, Time 24 hr): 0.1136 | Excretion of Fe in urine (iron-loaded dogs; Dog 1M, IV in saline 10 mg/kg (Ca-DTPA Day 1, Zn-DTPA Days 2-5), Time 0 hr (predose)): 0.1297 | Excretion of Fe in urine (iron-loaded dogs; Dog 2F, IV 10 mg/kg daily, Time 48 hr): 0.2686 | Excretion of Fe in urine (iron-loaded dogs; Dog 2F, IV 10 mg/kg daily, Time 72 hr): 0.1623 | Excretion of Fe in urine (iron-loaded dogs; Dog 2F, IV 10 mg/kg daily, Time 96 hr): 0.2884 | Excretion of Fe in urine (iron-loaded dogs; Dog 2F, IV 10 mg/kg daily, Time 120 hr): 0.0166 | Excretion of Fe in urine, Total (iron-loaded dogs; Dog 2F, IV 10 mg/kg daily): 0.925 | Excretion of Fe in urine (iron-loaded dogs; Dog 2F, IV 10 mg/kg, Time 4 hr): 0.0975 | Excretion of Fe in urine (iron-loaded dogs; Dog 2F, IV 10 mg/kg, Time 8 hr): 0.0124 | Excretion of Fe in urine (iron-loaded dogs; Dog 2F, IV 10 mg/kg, Time 24 hr): 0.0792 | Excretion of Fe in urine (iron-loaded dogs; Dog 2F, IV in saline 10 mg/kg (Ca-DTPA Day 1, Zn-DTPA Days 2-5), Time 0 hr (predose)): 0.1158 | Excretion of Fe in urine (iron-loaded dogs; Dog 3M, Oral 10 mg/kg in 20% Labrasol capsules (Ca-DTPA Day 1, Zn-DTPA Days 2-5), Time 0 hr (predose)): 0.0947 | Excretion of Fe in urine (iron-loaded dogs; Dog 3M, Oral 10 mg/kg in 20% Labrasol capsules, Time 4 hr): 0.0654 | Excretion of Fe in urine (iron-loaded dogs; Dog 3M, Oral 10 mg/kg in 20% Labrasol capsules, Time 8 hr): 0.0153 | Excretion of Fe in urine (iron-loaded dogs; Dog 3M, Oral 10 mg/kg in 20% Labrasol capsules, Time 24 hr): 0.1000 | Excretion of Fe in urine (iron-loaded dogs; Dog 3M, Oral 10 mg/kg in 20% Labrasol capsules, Time 48 hr): 0.1232 | Excretion of Fe in urine (iron-loaded dogs; Dog 3M, Oral 10 mg/kg in 20% Labrasol capsules, Time 72 hr): 0.0506 | Excretion of Fe in urine (iron-loaded dogs; Dog 3M, Oral 10 mg/kg in 20% Labrasol capsules, Time 96 hr): 0.1869 | Excretion of Fe in urine (iron-loaded dogs; Dog 3M, Oral 10 mg/kg in 20% Labrasol capsules, Time 120 hr): 0.0506 | Excretion of Fe in urine, Total (iron-loaded dogs; Dog 3M, Oral 10 mg/kg in 20% Labrasol capsules): 0.591 | Excretion of Fe in urine (iron-loaded dogs; Dog 4F, Oral 10 mg/kg in 20% Labrasol capsules (Ca-DTPA Day 1, Zn-DTPA Days 2-5), Time 24 hr): 0.0314 | Excretion of Fe in urine (iron-loaded dogs; Dog 4F, Oral 10 mg/kg in 20% Labrasol capsules, Time 48 hr): 0.1162 | Excretion of Fe in urine (iron-loaded dogs; Dog 4F, Oral 10 mg/kg in 20% Labrasol capsules, Time 72 hr): 0.0210 | Excretion of Fe in urine (iron-loaded dogs; Dog 4F, Oral 10 mg/kg in 20% Labrasol capsules, Time 96 hr): 0.0406 | Excretion of Fe in urine (iron-loaded dogs; Dog 4F, Oral 10 mg/kg in 20% Labrasol capsules, Time 120 hr): 0.1089 | Excretion of Fe in urine, Total (iron-loaded dogs; Dog 4F, Oral 10 mg/kg in 20% Labrasol capsules): 0.318 | time of highest excretion of Fe in the urine (iron-loaded dogs; female Dog 4 (oral group)): 48 h | excretion of Fe after oral DTPA as % of the amount excreted by intravenously treated animals (iron-loaded dogs; female dogs): 34% | time of highest excretion of Fe in the urine (iron-loaded dogs; male Dog 1 (intravenous group)): 48 h | excretion of Fe after oral DTPA as % of the amount excreted by intravenously treated animals (iron-loaded dogs; male dogs): 40% | time of highest excretion of Fe in the urine (iron-loaded dogs; the other two dogs (Dog 2 IV, Dog 3 oral)): 96 h | dose excreted in the feces ([2]; by 24 hr, both treatment groups (bead and liquid capsule)): 73-74% | dose recovered in the excreta ([2]; by 264 hr after dose administration, oral Labrasol formulations): 95-96%

O=C([O-])CN(CCN(CC(=O)[O-])CC(=O)[O-])CCN(CC(=O)[O-])CC(=O)[O-].[Na+].[Na+].[Na+].[Zn+2] [Zn-DTPA, zinc diethylenetriaminepentaacetate]
Papp [3]: 1.65 ×10⁻⁶ cm/s | Papp ([4]; Jejunum, 5 mg/ml of drug in HEPES Buffer): 4.54 ×10⁻⁶ cm/s and 4.28 ×10⁻⁶ cm/s | Papp ([4]; jejunum, 5 mg/ml of drug in HEPES Buffer containing 40% Labrasol): 19.08 ×10⁻⁶ cm/s | Papp ([4]; jejunum, 100 mg/ml DTPA in HEPES buffer, 5% TPGS + 5% Labrasol): 6.34 ×10⁻⁶ cm/s | Papp ([4]; jejunum, 100 mg/ml DTPA in HEPES buffer, 5% Tween 80 + 5% Labrasol): 13.27 ×10⁻⁶ cm/s | Papp ([4]; jejunum, 100 mg/ml DTPA in HEPES buffer, 20% Bile Salt): 19.65 ×10⁻⁶ cm/s | Papp ([4]; jejunum, 100 mg/ml of drug in HEPES Buffer containing 10% Labrasol): 4.21 ×10⁻⁶ cm/s | Papp ([4]; jejunum, 100 mg/ml of drug in HEPES Buffer containing 20% Labrasol): 3.53 ×10⁻⁶ cm/s | Papp ([4]; jejunum, 100 mg/ml of drug in HEPES Buffer containing 40% Labrasol): 6.81 ×10⁻⁶ cm/s | Papp ([4]; jejunum, 100 mg/ml of drug in HEPES Buffer only): 5.86 ×10⁻⁶ cm/s | Papp [5]: 2.07 ×10⁻⁶ cm/s | Papp (rat colon): 2.39 ×10⁻⁶ cm/s

O=C(O)CN(CCN(CC(=O)O)CC(=O)O)CCN(CC(=O)O)CC(=O)O [free acid DTPA]
% Bioavailability Mean ± SD ([1]; Group 3 Oral, water): 6.80 ± 1.66% | AUC0→last Mean ± SD ([1]; Group 3 Oral, water, 16.38 mg-equiv DTPA/Kg, 6 hr): 1.21 ± 0.29 Hr * ( ng/ml) | AUC0→last ([1]; Group 3 Oral, water, 16.38 mg-equiv DTPA/Kg, last time point 6 hr, individual rats): 1.4708 Hr * ( ng/ml) and 0.8897 Hr * ( ng/ml) and 1.2594 Hr * ( ng/ml) | % Bioavailability ([1]; Group 3 Oral, water, individual rats): 8.29% and 5.02% and 7.10% | % Bioavailability Mean ± SD ([1]; Group 3 Oral, water, listed as DTPA (free acid)): about 7%

C=C[C@H]1C[N@@]2CC[C@H]1C[C@@H]2[C@@H](O)c1ccnc2ccc(OC)cc12 [quinidine]
inhibition of efflux transport of DTPA ([1]; 0.15 mM quinidine 20 min before DTPA in 20% Labrasol, inferred from rat #19): active in inhibiting efflux transport of DTPA
